Structures can show the parent of a compound that is named as a salt.
Legend:
[1] = tested on: tumor; test: Visual observation of tumor metastasis; format: in vivo, rat; settings: rats dissected 35 days after the extracorporeal perfusion, region other than beneath the back skin
Text: The test procedures of Examples 10 to 15 and Comparative Examples 11 to 22 were repeated, except for using three other rats (Examples 16 to 18, and Comparative Examples 21 to 26). The metastasis of the tumor to a region other than beneath the back skin to which the tumor was inoculated was visually observed (Table 6). The rats were dissected 35 days after the extracorporeal perfusion, and the tumor was observed. As a result, the metastasis was hardly observed in cases in which the extracorporeal perfusion treatment was carried out two days into the administration of gemcitabine hydrochloride.

[2] = tested on: tumor; test: Combined treatment of anticancer agent and extracorporeal perfusion: tumor volume; format: in vivo, rat; settings: anticancer agent administered, no extracorporeal perfusion
Protocol: The dimensions of the tumor region of a rat were measured using micrometer calipers. The longest diameter of the tumor was defined as the major axis, and a diameter of the tumor passing through the midpoint of the major axis in a direction perpendicular to the major axis was defined as the minor axis. The tumor volume was defined according to the following equation: Tumor Volume=(Major Axis)×(Minor Axis)×(Minor Axis)×0.5[Adsorbent for TGF β and Immunosuppressive Acidic Protein] […]
One week after the inoculation of cancer cells (rat body weight: 400 to 430 g), 0.6 mg of gemcitabine hydrochloride was injected in the vicinity of the tumor. The gemcitabine hydrochloride used herein was prepared by dissolving an injection preparation thereof (available from Eli Lilly Japan K.K.) in physiological saline to yield a 20 mg/mL solution. […]
Six rats were treated, and the tumor volumes after the inoculation of cancer cells were determined. The results in Comparative Examples 15 to 20, in which the anticancer agent was administered but the extracorporeal perfusion treatment was not carried out, are shown in Table 5.

Which “Metastasis (visual observation)” value ([1]; listed as Com. Ex. 25, hydrochloride) does the source give for Nc1ccn([C@@H]2O[C@H](CO)[C@@H](O)C2(F)F)c(=O)n1 [Comparative Example 15, gemcitabine hydrochloride] here?
The value was “dermic micrometastasis (2 mm”.

What about the “Metastasis (visual observation)” value ([1]; listed as Com. Ex. 26, hydrochloride) of the same compound?
The value was “dermic micrometastasis (2 mm”.

What about the Tumor volume ([2]; 14 days after inoculation of cancer cells) of the same compound?
The Tumor volume was <0.06 mL.

And the Tumor volume ([2]; 21 days after inoculation of cancer cells, hydrochloride)?
Its Tumor volume is 4.3 mL.

What about the Tumor volume ([2]; 21 days after inoculation of cancer cells, listed as Comparative Example 16, hydrochloride) of the same compound?
Its Tumor volume is 7.9 mL.

And the Tumor volume ([2]; 21 days after inoculation of cancer cells, listed as Comparative Example 17, hydrochloride)?
Its Tumor volume is 6.6 mL.

What about the Tumor volume ([2]; 21 days after inoculation of cancer cells, listed as Comparative Example 18, hydrochloride) of the same compound?
The Tumor volume was 7.4 mL.

What about the Tumor volume ([2]; 21 days after inoculation of cancer cells, listed as Comparative Example 19, hydrochloride) of the same compound?
The Tumor volume was 7.0 mL.

What about the Tumor volume ([2]; 21 days after inoculation of cancer cells, listed as Comparative Example 20, hydrochloride) of the same compound?
Its Tumor volume is 4.5 mL.

What about the Tumor volume ([2]; 28 days after inoculation of cancer cells, hydrochloride) of the same compound?
Its Tumor volume is 26 mL.

And the Tumor volume ([2]; 28 days after inoculation of cancer cells, listed as Comparative Example 16, hydrochloride)?
Its Tumor volume is 41 mL.

What about the Tumor volume ([2]; 28 days after inoculation of cancer cells, listed as Comparative Example 17, hydrochloride) of the same compound?
The Tumor volume was 24 mL.

What about the Tumor volume ([2]; 28 days after inoculation of cancer cells, listed as Comparative Example 18, hydrochloride) of the same compound?
The Tumor volume was 35 mL.

What about the Tumor volume ([2]; 28 days after inoculation of cancer cells, listed as Comparative Example 19, hydrochloride) of the same compound?
Its Tumor volume is 30 mL.

And the Tumor volume ([2]; 28 days after inoculation of cancer cells, listed as Comparative Example 20, hydrochloride)?
Its Tumor volume is 25 mL.

What about the Tumor volume ([2]; 35 days after inoculation of cancer cells, hydrochloride) of the same compound?
The Tumor volume was 41 mL.

What about the Tumor volume ([2]; 35 days after inoculation of cancer cells, listed as Comparative Example 16, hydrochloride) of the same compound?
Its Tumor volume is 59 mL.

And the Tumor volume ([2]; 35 days after inoculation of cancer cells, listed as Comparative Example 17, hydrochloride)?
The Tumor volume was 38 mL.

And the Tumor volume ([2]; 35 days after inoculation of cancer cells, listed as Comparative Example 18, hydrochloride)?
The Tumor volume was 54 mL.

What about the Tumor volume ([2]; 35 days after inoculation of cancer cells, listed as Comparative Example 19, hydrochloride) of the same compound?
The Tumor volume was 47 mL.

And the Tumor volume ([2]; 35 days after inoculation of cancer cells, listed as Comparative Example 20, hydrochloride)?
The Tumor volume was 37 mL.
